Test results from US9598390B2, “Bicyclo[2.2.2]acid GPR120 modulators” (BRISTOL-MYERS SQUIBB COMPANY, priority 2013, dated 2017).

What follows are molecules tested against T1, human GPR120 (Homo sapiens, UniProt Q5NUL3) (assay: GPR120 pERK AlphaScreen SureFire Assay (human GPR120 pERK assay)). Details: CHO cells stably transfected with the short form of human GPR120 receptor.
T1 construct: expressed in transfected cells; host or cells: CHOA12 cells or CHO-K1 cells, stably transfected
T1 sequence (Q5NUL3 1-361): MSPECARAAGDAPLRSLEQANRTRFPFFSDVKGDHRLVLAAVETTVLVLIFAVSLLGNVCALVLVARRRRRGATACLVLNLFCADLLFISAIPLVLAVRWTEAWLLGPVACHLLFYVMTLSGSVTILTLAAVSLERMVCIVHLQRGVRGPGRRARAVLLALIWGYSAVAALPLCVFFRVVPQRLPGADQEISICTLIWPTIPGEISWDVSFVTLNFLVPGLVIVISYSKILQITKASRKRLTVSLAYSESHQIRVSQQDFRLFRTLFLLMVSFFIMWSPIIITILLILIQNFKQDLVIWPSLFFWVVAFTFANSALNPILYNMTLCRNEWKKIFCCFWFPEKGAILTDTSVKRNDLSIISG
Type: cell-based
Text: GPR120 activity was monitored by measuring phosphorylation of ERK (pERK), since G protein receptors are known to activate the ERK signaling cascade either directly and/or through recruitment of arrestin that serves as a scaffold for downstream signaling events.
GPR120 pERK AlphaScreen SureFire Assay
The human and mouse GPR120-mediated intracellular phosphorylated ERK assays were established using CHOAl2 cells stably transfected with the short form of human or mouse GPR120 receptor. Cells were cultured in growth medium consisting of F-12 media (Invitrogen Cat. #11765) with 5% Charcoal/Dextran FBS (Invitrogen Cat. #12676-029), 500 μg/mL GENETICIN® (Life Technologies Cat. #10131-027) and 250 μg/mL Zeocin (Invitrogen Cat. #R250-01). Cells were cryo preserved at a concentration of 2×10^7 cells/mL, in 90% Charcoal/Dextran FBS and 10% DMSO, and frozen in liquid nitrogen at a low passage number.
For the pERK assay, 2×10^7 cells/mL cryopreserved human and mouse cells were thawed rapidly in a 37° C. water bath and added to a T-225 flask containing 50 mL growth medium. The flasks were placed in a tissue culture incubator overnight (37° C., 5% CO2). The next day, cells were harvested with trypsin (Gibco Cat. #25300-054), resuspended in serum-containing growth medium and counted using a Cellometer and volume adjusted to a concentration of 0.6×10^6cells/mL. Cells were plated into 384-well clear bottom tissue culture plates (BD Cat. #353962) at 50 μL/well, for a density of 30,000 cells/well using a MULTIDROP® and incubated for 16-18 hours (overnight) at 37° C. with 5% CO2. The next day, cells were serum starved in 30 μL of F-12 media without any serum or antibiotics for 2 hours at 37° C.
Test compounds were 3-fold, 11-point serially diluted in DMSO in a REMP assay plate (Matrix Cat. #4307) by Tecan and 5 μL was transferred into an ECHO source plate (Labcyte Cat. #LC-0200). Cells were then stimulated with 50 nL of compound dilutions using ECHO liquid handler for 7 minutes at 37° C. Compounds ranged from final assay concentrations of 33.33 μM to 0.56 nM.
The media was then dumped and cells lysed with 20 μL of 1× Lysis buffer from the AlphaScreen SureFire Phospho-ERK 1/2 Kit (Perkin Elmer Cat. #6760617M). The lysis buffer was diluted 5-fold with water before use. The plate was agitated on a shaker for 10 minutes after which 2 μL was transferred into a 384-well white proxiplate (Perkin Elmer Cat. #6008289). The SureFire assay reagent mix was prepared by mixing 60 parts Reaction Buffer, 10 parts Activation Buffer, 1 part Donor Beads, 1 part Acceptor Beads (Perkin Elmer Cat. #TGRES10K). 3.5 μL/well of this reagent mix was manually added to the proxiplate with a multichannel pipettor. Plates were spun down at 1000 rpm for 2 minutes, followed by light-protected incubation at room temperature for 2 hours. The plates were read on the Alpha-technology compatible Envision multilabel plate reader using AlphaScreen protocol according to manufacturer's specifications. The agonist effect of compounds was expressed as 100×(average sample-average blank)/(average total−average blank) where sample is the luminescence activity in the presence of test compound, blank is equal to the luminescence activity in the presence of DMSO control and the total is signal induced by 50 μM linolenic acid as reference compound. Activation data for the test compound over a range of concentrations was plotted as percentage activation of the test compound (100%=maximum response). After correcting for background, EC50 values were determined. The EC50 is defined as the concentration of test compound which produces 50% of the maximal response and was quantified using the 4 parameter logistic equation to fit the data.
The human and mouse GPR120-mediated intracellular phosphorylated ERK assays were also established using CHO-K1 cells stably transfected with the short form of human or mouse GPR120 receptor. […]
Molecule CC1(C)Cc2cc(Cl)cc(COC34CCC(CCCC(=O)O)(CC3)CC4)c2O1 [Example 2, 4-(4-((5-Chloro-2,2-dimethyl-2,3-dihydrobenzofuran-7-yl)methoxy)bicyclo[2.2.2]octan-1-yl)butanoic acid] has an EC50 of 2470 nM. Work on O=C(O)CCC12CCC(OCc3cccc(Oc4ccccc4)c3)(CC1)CC2 [Example 5, 3-(4-(3-Phenoxy-benzyloxy)bicyclo[2.2.2]octan-1-yl)propanoic acid] yielded an EC50 of 430 nM. With O=C(O)COCC12CCC(OCc3cccc(Oc4ccccc4)c3)(CC1)CC2 [Example 10, 2-((4-(3-Phenoxybenzyloxy)bicyclo[2.2.2]octan-1-yl)methoxy)acetic acid] the EC50 was 680 nM. O=C(O)CCC12CCC(OCc3cc(F)cc(Oc4ccc(F)cc4)c3)(CC1)CC2 [Example 12, 3-(4-(3-Fluoro-5-(4-fluorophenoxy)benzyloxy)bicyclo[2.2.2]octan-1-yl)propanoic acid] was tested, and the EC50 was 540 nM. Work on N#Cc1cccc(OC23CCC(CCCC(=O)O)(CC2)CC3)c1 [Example 3, 4-(4-(3-Cyanophenoxy)bicyclo[2.2.2]octan-1-yl)butanoic acid] yielded an EC50 of 1110 nM. With COc1cccc(COC23CCC(CCCC(=O)O)(CC2)CC3)c1 [Example 7, 4-(4-(3-Methoxy-benzyloxy)bicyclo[2.2.2]octan-1-yl)butanoic acid] the EC50 was 6910 nM. O=C(O)CCC12CCC(OCc3cc(F)cc(Oc4ccccc4)c3)(CC1)CC2 [Example 8, 3-(4-(3-Fluoro-5-phenoxy-benzyloxy)bicyclo [2.2.2]octan-1-yl)propanoic acid] was tested, and the EC50 was 270 nM. Cc1cc(COC23CCC(CCC(=O)O)(CC2)CC3)n(-c2ccc(Cl)cc2)n1 [Example 4, 3-(4-((1-(4-Chlorophenyl)-3-methyl-1H-pyrazol-5-yl)methoxy)bicyclo[2.2.2]octan-1-yl)propanoic acid] showed an EC50 of 2740 nM. Molecule CC1(C)Cc2cc(Cl)cc(COC34CCC(CCC(=O)O)(CC3)CC4)c2O1 [Example 1, 3-(4-((5-Chloro-2,2-dimethyl-2,3-dihydrobenzofuran-7-yl)methoxy)bicyclo[2.2.2]octan-1-yl)propanoic acid] has an EC50 of 610 nM. For CC(C)Oc1cc(F)cc(COC23CCC(CCC(=O)O)(CC2)CC3)c1 [Example 11, 3-(4-(3-Fluoro-5-isopropoxybenzyloxy)bicyclo[2.2.2]octan-1-yl)propanoic acid], the EC50 was 870 nM. CC1(C)Cc2cc(Cl)cc(OCC34CCC(CCC(=O)O)(CC3)CC4)c2O1 [Example 15, 3-(4-(((5-Chloro-2,2-dimethyl-2,3-dihydrobenzofuran-7-yl)oxy)methyl)bicyclo[2.2.2]octan-1-yl)propanoic acid] gave an EC50 of 1340 nM. CC1(C)Cc2cccc(OCC34CCC(CCC(=O)O)(CC3)CC4)c2O1 [Example 14, 3-(4-(((2,2-Dimethyl-2,3-dihydrobenzofuran-7-yl)oxy)methyl)bicyclo[2.2.2]octan-1-yl)propanoic acid] showed an EC50 of 900 nM. Work on O=C(O)CCC12CCC(OCc3cc(F)ccc3Oc3ccccc3)(CC1)CC2 [Example 9, 3-(4-(5-Fluoro-2-phenoxybenzyloxy)bicyclo[2.2.2]octan-1-yl)propanoic acid] yielded an EC50 of 280 nM. With CC1(C)Cc2cc(Cl)cc(OCC34CCC(/C=C/C(=O)O)(CC3)CC4)c2O1 [Example 13, (E)-3-(4-(((5-Chloro-2,2-dimethyl-2,3-dihydrobenzofuran-7-yl)oxy)methyl)bicyclo[2.2.2]octan-1-yl)acrylic acid] the EC50 was 2690 nM. O=C(O)CCC12CCC(OCc3ccccc3Oc3ccccc3)(CC1)CC2 [Example 6, 3-(4-(2-Phenoxy-benzyloxy)bicyclo[2.2.2]octan-1-yl)propanoic acid] gave an EC50 of 400 nM.
